According to US9156801B2, “2-substituted oleanolic acid derivative, method preparing for same, and application thereof” (HANGZHOU BENSHENG PHARMACEUTICAL CO., LTD., priority 2011, dated 2015):
In brackets after ≈: the same amount, converted by molar mass.

Key:
[1] = system: K562/adr cell line; assay: leukemia cell growth inhibition, MTT; format: cell-based; conditions: Homo sapiens, 72 h; for IC50: K562/Adr; for inhibition at 16 µg/mL: K562/adr, 16 μg/mL compound, read-out: IR (cell proliferation inhibition rate)
Source text: (§1) Leukemia cell lines: leukemia cell lines: K562/adr (drug-resistant, chronic myeloid leukemia, CML), NB4 (acute promyelocytic leukemia, AML), Kasumi-1 (acute myeloid leukemia M2 type, AML-M2), Jurkat (acute lymphoblastic leukemia, ALL), all of which are donated by Cancer Research Institute of Zhejiang University, China; and H9 (acute lymphoblastic leukemia, ALL), which is purchased from China Center for Type Culture Collection (CCTCC).
(§2) Obtaining 6000 well-growing leukemia cells and inoculating them into wells of a 96-well cell culture plate. The culture medium is the 1640 cell culture medium containing 10% fetal bovine serum. After adding the 2-substituted oleanolic acid derivatives of different concentrations and mixing uniformly, placing the plate in a carbon dioxide cell incubator (5% CO2) at 37° C. and incubated for 72 hours. Then the relative number of viable cells is determined by MTT method. In this experiment, cell proliferation inhibition rate in control group (not treated with any compound) is set as 0%.

[2] = system: Jurkat cell line; assay: leukemia cell growth inhibition, MTT; format: cell-based; conditions: Homo sapiens, 72 h; for inhibition at 16 µg/mL: 16 μg/mL compound, read-out: IR (cell proliferation inhibition rate)
Source text: as §1, §2

[3] = system: H9 cell line; assay: leukemia cell growth inhibition, MTT; format: cell-based; conditions: Homo sapiens; for IC50: H9, 72 h; for inhibition at 16 µg/mL: H9, 16 μg/mL compound, 72 h, read-out: IR (cell proliferation inhibition rate)
Source text: as §1, §2

[4] = system: Kasumi-1 cell line; assay: leukemia cell growth inhibition, MTT; format: cell-based; conditions: Homo sapiens; for inhibition at 16 µg/mL: Kasumi-1, 16 μg/mL compound, 72 h, read-out: IR (cell proliferation inhibition rate); for IC50: Kasumi-1, 72 h
Source text: as §1, §2

[5] = system: NB4 cell line; assay: leukemia cell growth inhibition, MTT; format: cell-based; conditions: Homo sapiens, NB-4; for inhibition at 16 µg/mL: NB4, 16 μg/mL compound, 72 h, read-out: IR (cell proliferation inhibition rate); for IC50: NB4, 72 h
Source text: as §1, §2

[6] = system: Hep G2 cell line; assay: solid tumor cell growth inhibition, MTT; format: cell-based, human; conditions: Homo sapiens; for inhibition at 16 µg/mL: HepG2, 72 h, Hep G2, 16 μg/mL compound, 72 h, read-out: IR (cell proliferation inhibition rate); for IC50: HepG2, Hep G2, 72 h
Procedure: (§3) Hep-2 (laryngeal carcinoma), A549 (human lung cancer), CaES-17 (esophageal cancer cell), PC-3 (prostate cancer), CNE (nasopharyngeal carcinoma cell), and SK-OV-3 (ovarian cancer cell), all of which are purchased from China Center For Type Culture Collection; RKO (human colon adenocarcinoma cell), MGC 803 (human gastric cancer cell), MG63 (osteosarcoma) and U87 MG (malignant glioma cell), all of which are purchased from Fuxiang Bio-tech Co. Ltd., Shanghai, China; PANC-1 (pancreatic cancer), Hep G2 (human liver cancer cell), Becap37 (human breast cancer cell), and Hela (human cervical cancer cell), all of which are donated by Cancer Research Institute of Zhejiang University, China.
(§4) Obtaining 4000 well-growing human solid tumor cells and inoculating them into wells of a 96-well cell culture plate. The culture medium is DMEM High Glucose cell culture medium containing 10% fetal bovine serum. The plate is placed in a carbon dioxide cell incubator (5% CO2) at 37° C. for 24 hours. After adding the 2-substituted oleanolic acid derivatives of different concentrations and mixing uniformly, the plate is placed in a carbon dioxide cell incubator (5% CO2) at 37° C. and incubated for 72 hours. Then the relative number of the living cells is determined by MTT method. In this experiment, the cell proliferation inhibition rate in control group (not treated with any compound) is set as 0%.

[7] = system: RPMI8226 cell line; assay: multiple myeloma cell growth inhibition, MTT; format: cell-based; conditions: Homo sapiens, RPMI-8226; for inhibition at 16 µg/mL: RPMI8226, 16 μg/mL compound, 72 h, read-out: IR (cell proliferation inhibition rate); for IC50: RPMI8226, 72 h
Procedure: Multiple myeloma cell lines: RPMI8226 (multiple myeloma), purchased from Fuxiang Bio-tech Co. Ltd., Shanghai, China.
Obtaining 6000 well-growing cells as above and inoculating them into wells of a 96-well cell culture plate. The culture medium is the 1640 cell culture medium containing 10% fetal bovine serum. After adding the 2-substituted oleanolic acid derivatives of different concentrations and mixing uniformly, placing the plate in a carbon dioxide cell incubator (5% CO2) at 37° C. and incubated for 72 hours. Then the relative number of viable cells is determined by MTT method. In this experiment, cell proliferation inhibition rate in control group (not treated with any compound) is set as 0%.

[8] = system: CNE cell line; assay: solid tumor cell growth inhibition, MTT; format: cell-based; conditions: Homo sapiens, 72 h; for inhibition at 16 µg/mL: 16 μg/mL compound, read-out: IR (cell proliferation inhibition rate)
Procedure: as §3, §4

[9] = system: Becap37 cell line; assay: solid tumor cell growth inhibition, MTT; format: cell-based; conditions: Homo sapiens; for inhibition at 16 µg/mL: Becap37, 16 μg/mL compound, 72 h, read-out: IR (cell proliferation inhibition rate); for IC50: Becap37, 72 h
Procedure: as §3, §4

[10] = system: MGC 803 cell line; assay: solid tumor cell growth inhibition, MTT; format: cell-based; conditions: Homo sapiens; for inhibition at 16 µg/mL: MGC 803, 16 μg/mL compound, 72 h, read-out: IR (cell proliferation inhibition rate); for IC50: MGC 803, 72 h
Procedure: as §3, §4

[11] = system: SK-OV-3 cell line; assay: solid tumor cell growth inhibition, MTT; format: cell-based; conditions: Homo sapiens; for IC50: SK-OV-3, 72 h; for inhibition at 16 µg/mL: SK-OV-3, 16 μg/mL compound, 72 h, read-out: IR (cell proliferation inhibition rate)
Procedure: as §3, §4

[12] = system: Hep-2 cell line; assay: solid tumor cell growth inhibition, MTT; format: cell-based; conditions: Homo sapiens; for IC50: HEp-2, 72 h; for inhibition at 16 µg/mL: Hep-2, 16 μg/mL compound, 72 h, read-out: IR (cell proliferation inhibition rate)
Procedure: as §3, §4

[13] = system: A549 cell line; assay: solid tumor cell growth inhibition, MTT; format: cell-based; conditions: Homo sapiens; for IC50: A549, 72 h; for inhibition at 16 µg/mL: A549, 16 μg/mL compound, 72 h, read-out: IR (cell proliferation inhibition rate)
Procedure: as §3, §4

[14] = system: PANC-1 cell line; assay: solid tumor cell growth inhibition, MTT; format: cell-based; conditions: Homo sapiens; for IC50: PANC-1, 72 h; for inhibition at 16 µg/mL: PANC-1, 16 μg/mL compound, 72 h, read-out: IR (cell proliferation inhibition rate)
Procedure: as §3, §4

[15] = system: RKO cell line; assay: solid tumor cell growth inhibition, MTT; format: cell-based; conditions: Homo sapiens, 72 h; for inhibition at 16 µg/mL: 16 μg/mL compound, read-out: IR (cell proliferation inhibition rate)
Procedure: as §3, §4

[16] = system: Hela cell line; assay: solid tumor cell growth inhibition, MTT; format: cell-based; conditions: Homo sapiens, 72 h; for IC50: HeLa; for inhibition at 16 µg/mL: Hela, 16 μg/mL compound, read-out: IR (cell proliferation inhibition rate)
Procedure: as §3, §4

[17] = system: CaES-17 cell line; assay: solid tumor cell growth inhibition, MTT; format: cell-based; conditions: Homo sapiens, CaEs17; for inhibition at 16 µg/mL: CaES-17, 16 μg/mL compound, 72 h, read-out: IR (cell proliferation inhibition rate); for IC50: CaES-17, 72 h
Procedure: as §3, §4

[18] = system: U87 MG cell line; assay: solid tumor cell growth inhibition, MTT; format: cell-based; conditions: Homo sapiens, U-87 MG, 72 h; for inhibition at 16 µg/mL: 16 μg/mL compound, read-out: IR (cell proliferation inhibition rate)
Procedure: as §3, §4

[19] = system: MG-63 cell line; assay: solid tumor cell growth inhibition, MTT; format: cell-based; conditions: Homo sapiens; for IC50: MG-63, 72 h; for inhibition at 16 µg/mL: MG-63, 16 μg/mL compound, 72 h, read-out: IR (cell proliferation inhibition rate)
Procedure: as §3, §4

[20] = system: PC-3 cell line; assay: solid tumor cell growth inhibition, MTT; format: cell-based; conditions: Homo sapiens; for IC50: PC-3, 72 h; for inhibition at 16 µg/mL: PC-3, 16 μg/mL compound, 72 h, read-out: IR (cell proliferation inhibition rate)
Procedure: as §3, §4

Structure (SMILES)	IC50 [1] [µg/mL]	inhibition at 16 µg/mL [1] [%]	inhibition at 16 µg/mL [2] [%]	IC50 [2] [µg/mL]	IC50 [3] [µg/mL]	inhibition at 16 µg/mL [3] [%]	inhibition at 16 µg/mL [4] [%]	IC50 [4] [µg/mL]	inhibition at 16 µg/mL [5] [%]	IC50 [5] [µg/mL]	inhibition at 16 µg/mL [6] [%]	IC50 [6] [µg/mL]	inhibition at 16 µg/mL [7] [%]	IC50 [7] [µg/mL]	inhibition at 16 µg/mL [8] [%]	IC50 [8] [µg/mL]	inhibition at 16 µg/mL [9] [%]	IC50 [9] [µg/mL]	inhibition at 16 µg/mL [10] [%]	IC50 [10] [µg/mL]	further results
CN1CCN(CCCNC(=O)C2C[C@]3(C)[C@H]4CC=C5[C@@H]6CC(C)(C)CC[C@]6(C(=O)O)CC[C@@]5(C)[C@]4(C)CC[C@H]3C(C)(C)C2=O)CC1 (some centres unmarked) [BS-OA-110]	8.79 (≈ 13.8 µM)	81.9	45.5	18.4 (≈ 28.8 µM)	> 16	37.9	41.7	> 16	78.8	8.95 (≈ 14 µM)	29.5	> 16	96.7	8.58 (≈ 13.4 µM)	30.1	> 16	22.2	> 16	2.9	> 16	IC50 [11]: > 16 µg/mL; inhibition at 16 µg/mL [11]: -20.1%; IC50 [12]: > 16 µg/mL; inhibition at 16 µg/mL [12]: -6.3%; IC50 [13]: > 16 µg/mL; inhibition at 16 µg/mL [13]: 4%; IC50 [14]: > 16 µg/mL; inhibition at 16 µg/mL [14]: 13.1%; inhibition at 16 µg/mL [15]: -19.1%; IC50 [15]: > 16 µg/mL; IC50 [16]: > 16 µg/mL; inhibition at 16 µg/mL [16]: 26.1%; inhibition at 16 µg/mL [17]: -1%; IC50 [17]: > 16 µg/mL; inhibition at 16 µg/mL [18]: -12.6%; IC50 [18]: > 16 µg/mL; IC50 [19]: > 16 µg/mL; inhibition at 16 µg/mL [19]: 29.5%; IC50 [20]: > 16 µg/mL; inhibition at 16 µg/mL [20]: -11.4%
CCC(C)CNC(=O)C1C[C@@]2(C)C(CC[C@]3(C)C2CC=C2C4CC(C)(C)CC[C@]4(C(=O)OC)CC[C@]23C)C(C)(C)C1=O (some centres unmarked) [BS-OA-008]	8 (≈ 13.7 µM)	70.1	-33.8	> 16	> 16	39.8	6.7	> 16	6.3	> 16	8.1	> 16	30	> 16	15.1	> 16	2.3	> 16	-12.4	> 16	IC50 [11]: > 16 µg/mL; inhibition at 16 µg/mL [11]: 14.3%; IC50 [12]: > 16 µg/mL; inhibition at 16 µg/mL [12]: 3.5%; IC50 [13]: > 16 µg/mL; inhibition at 16 µg/mL [13]: 3.4%; IC50 [14]: > 16 µg/mL; inhibition at 16 µg/mL [14]: -4.6%; inhibition at 16 µg/mL [15]: -18.6%; IC50 [15]: > 16 µg/mL; IC50 [16]: > 16 µg/mL; inhibition at 16 µg/mL [16]: 0.5%; inhibition at 16 µg/mL [17]: -12.7%; IC50 [17]: > 16 µg/mL; inhibition at 16 µg/mL [18]: 30.1%; IC50 [18]: > 16 µg/mL; IC50 [19]: > 16 µg/mL; inhibition at 16 µg/mL [19]: -12.1%; IC50 [20]: > 16 µg/mL; inhibition at 16 µg/mL [20]: 12%
